Measurements taken from patent US20240199546A1, “INHIBITORS OF SOLUTE CARRIER FAMILY 6A MEMBER 19 (SLC6A19) AND METHODS OF USE THEREOF” (Maze Therapeutics, Inc., priority 2022, published 2024).

target: T1, human SLC6A19 and TMEM27 (Homo sapiens, UniProt Q695T7); assay: Radiolabelled (3H) leucine uptake in CHO cells with doxycycline-inducible expression of human SLC6A19 and TMEM27 (Example B-1); type: cell-based; details: CHO cells with doxycycline-inducible expression of human SLC6A19 and TMEM27, read-out: SLC6A19_Radioligand Uptake Assay IC50
T1 construct: expressed in transfected cells
T1 sequence (Q695T7 1-634): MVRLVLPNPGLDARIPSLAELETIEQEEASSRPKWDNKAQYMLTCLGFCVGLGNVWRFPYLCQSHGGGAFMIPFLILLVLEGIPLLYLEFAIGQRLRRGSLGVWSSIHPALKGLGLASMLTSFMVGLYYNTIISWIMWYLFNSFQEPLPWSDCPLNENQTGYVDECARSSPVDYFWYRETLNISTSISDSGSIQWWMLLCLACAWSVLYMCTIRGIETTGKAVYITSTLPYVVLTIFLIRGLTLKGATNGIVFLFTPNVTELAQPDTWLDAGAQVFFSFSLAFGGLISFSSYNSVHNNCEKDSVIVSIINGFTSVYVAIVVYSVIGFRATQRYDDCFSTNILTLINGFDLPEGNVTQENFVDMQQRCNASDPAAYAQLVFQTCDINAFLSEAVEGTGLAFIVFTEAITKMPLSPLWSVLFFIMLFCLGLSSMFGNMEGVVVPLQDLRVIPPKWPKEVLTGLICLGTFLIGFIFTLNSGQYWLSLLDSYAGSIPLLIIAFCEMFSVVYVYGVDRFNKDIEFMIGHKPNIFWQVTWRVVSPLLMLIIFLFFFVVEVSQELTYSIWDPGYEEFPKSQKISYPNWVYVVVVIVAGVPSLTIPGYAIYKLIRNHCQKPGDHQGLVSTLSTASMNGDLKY
T1 sequence (Q9HBJ8 15-222 partner): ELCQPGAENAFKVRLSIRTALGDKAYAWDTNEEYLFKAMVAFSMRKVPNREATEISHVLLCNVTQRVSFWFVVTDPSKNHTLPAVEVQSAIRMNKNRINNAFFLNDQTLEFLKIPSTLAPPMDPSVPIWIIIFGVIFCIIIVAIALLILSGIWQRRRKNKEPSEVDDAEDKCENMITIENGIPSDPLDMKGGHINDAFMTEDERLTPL
Summary of the method: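 CHO cells were induced with doxycycline for 18 h at 37 °C, washed in HBSS, then exposed to compounds for 1 h: 8-point, 3-fold dilutions in duplicate, 0.5% DMSO final. Uptake measured by scintillation counting after 2 h shaking. Activity normalized with positive control as 0% and DMSO as 100%.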

Going from Cc1cc(COc2cc3[nH]c(CNC(=O)CC(F)F)cc3cc2F)on1 [Compound 518, 3,3-difluoro-N-((5-fluoro-6-((3-methylisoxazol-5-yl)methoxy)-1H-indol-2-yl)methyl)propanamide] to Cc1cc(COc2cc3[nH]c(CNC(=O)C[C@@H](C)O)cc3cc2Cl)on1 [Compound 287, (R)-N-((5-chloro-6-((3-methylisoxazol-5-yl)methoxy)-1H-indol-2-yl)methyl)-3-hydroxybutanamide], the IC50 rises from 179 nM to 2400 nM (13-fold). The first is the more potent here.

Going from O=C(NCc1cc2cc(OC(F)(F)F)c(CCc3cocn3)cc2[nH]1)N1CCCC1 [Compound 468, N-((6-(2-(oxazol-4-yl)ethyl)-5-(trifluoromethoxy)-1H-indol-2-yl)methyl)pyrrolidine-1-carboxamide] to CC1(C(=O)NCc2cc3cc(OC(F)(F)F)c(CCc4cscn4)cc3[nH]2)CC1 [Compound 509, 1-methyl-N-((6-(2-(thiazol-4-yl)ethyl)-5-(trifluoromethoxy)-1H-indol-2-yl)methyl)cyclopropane-1-carboxamide], the IC50 rises from 422 nM to 1520 nM (3.6-fold).

Compared with CC1(C(=O)NCc2cc3cc(Cl)c(CCn4ncnn4)cc3[nH]2)CC1 [Compound 584, N-((6-(2-(2H-tetrazol-2-yl)ethyl)-5-chloro-1H-indol-2-yl)methyl)-1-methylcyclopropane-1-carboxamide], Cc1cc(COc2cc3[nH]c(CNC(=O)CC4(O)CC4)cc3cc2Cl)on1 [Compound 237, N-((5-chloro-6-((3-methylisoxazol-5-yl)methoxy)-1H-indol-2-yl)methyl)-2-(1-hydroxycyclopropyl)acetamide] is 1.6-fold higher in IC50: 889 nM for the first, 1410 nM for the second.

Compared with Cc1cc(COc2cc3[nH]c(CNC(=O)[C@@H]4CC(F)(F)CN4)cc3cc2Cl)on1 [Compound 666, (S)-N-((5-chloro-6-((3-methylisoxazol-5-yl)methoxy)-1H-indol-2-yl)methyl)-4,4-difluoropyrrolidine-2-carboxamide], Cc1cc(COc2cc3[nH]c(CNC(=O)C45CC(CO4)C5)cc3cc2Cl)on1 [Compound 301, N-((5-chloro-6-((3-methylisoxazol-5-yl)methoxy)-1H-indol-2-yl)methyl)-2-oxabicyclo[2.1.1]hexane-1-carboxamide] is 9.1-fold lower in IC50: 2990 nM for the first, 327 nM for the second.

First: O=C(NCc1cc2cc(Cl)c(OCc3cscn3)cc2[nH]1)[C@@H]1CCCO1 [Compound 293, (S)-N-((5-chloro-6-(thiazol-4-ylmethoxy)-1H-indol-2-yl)methyl)tetrahydrofuran-2-carboxamide]
Second: O=C(NCc1cc2cc(Cl)c(OCc3cscn3)cc2[nH]1)C1CC12CCC2 (stereo not drawn) [Compound 558, N-((5-chloro-6-(thiazol-4-ylmethoxy)-1H-indol-2-yl)methyl)spiro[2.3]hexane-1-carboxamide]
The IC50 of the first is 2.1-fold lower: 500 nM for the first, 1030 nM for the second.

Cc1cc(COc2cc3[nH]c(CNC(=O)[C@H]4COCCO4)cc3cc2Cl)on1 [Compound 304, (R)-N-((5-chloro-6-((3-methylisoxazol-5-yl)methoxy)-1H-indol-2-yl)methyl)-1,4-dioxane-2-carboxamide] and CN(C)CC(=O)NCc1cc2cc(Cl)c(OCc3cscn3)cc2[nH]1 [Compound 580, N-((5-chloro-6-(thiazol-4-ylmethoxy)-1H-indol-2-yl)methyl)-2-(dimethylamino)acetamide] are within 1.5-fold of each other in IC50: 718 nM for the first, 620 nM for the second.

Going from COC(C)C(=O)NCc1cc2cc(Cl)c(OCc3cscn3)cc2[nH]1 (stereo not drawn) [Compound 271, N-((5-chloro-6-(thiazol-4-ylmethoxy)-1H-indol-2-yl)methyl)-2-methoxypropanamide] to O=C(NCc1cc2cc(C3CC3)c(OCc3cscn3)cc2[nH]1)N1CCC1 [Compound 651, N-((5-cyclopropyl-6-(thiazol-4-ylmethoxy)-1H-indol-2-yl)methyl)azetidine-1-carboxamide], the IC50 falls from 515 nM to 340 nM (1.5-fold). The second is the more potent here.

same assay, conditions: SLC6A19_Radioligand Uptake Assay IC50, CHO cells with doxycycline-inducible expression of human SLC6A19 and TMEM27

In the case of Cc1cc(COc2cc3[nH]c(CNC(N)=O)cc3cc2Cl)on1 [Compound 637, 1-((5-chloro-6-((3-methylisoxazol-5-yl)methoxy)-1H-indol-2-yl)methyl)urea], the IC50 is reported as 376 nM.
